Laboratory results as given in ChEMBL document CHEMBL5244255, “An insight on medicinal attributes of 1,2,4-triazoles” (Eur J Med Chem, 2020).
In brackets after ≈: the same amount, converted by molar mass.

Legend:
Human alphaherpesvirus 1 [1] = test: Antiviral activity against Human alphaherpesvirus 1 infected in African green monkey Vero kidney cells assessed as plaque reduction at 80 uM relative to control; type: functional; parameters: scale not given: the % may be the effect or the level left
[2] = Protection index, ratio of TD50 for neurotoxicity in ip dosed mouse to ED50 for anticonvulsant activity in ip dosed mouse; type: toxicity, organism-based; conditions: in vivo, read-out: Ratio TD50/ED50
Mus musculus [3] = test: Anticonvulsant activity in ip dosed mouse assessed as protection against PTZ-induced seizure; type: functional
Mus musculus [4] = test: Anticonvulsant activity in ip dosed mouse assessed as MES-induced seizures; type: functional
MCF7 [5] = test: Anticancer activity against human MCF7 cells assessed a cell growth inhibition incubated for 48 hrs by SRB assay; type: functional, cell-based; conditions: MCF7, 48 h
[6] = target: T1, Vascular endothelial growth factor receptor 2 (Homo sapiens, UniProt P35968); test: Inhibition of human VEGFR2 using biotinylated poly-GluTyr as substrate at 117 ng/ml incubated for 24 hrs in presence of ATP by ELISA assay relative to control
PC-3 [7] = test: Anticancer activity against human PC-3 cells assessed as cell growth inhibition incubated for 24 hrs by MTS assay; type: functional, cell-based; conditions: PC-3, 24 h
DU-145 [8] = test: Anticancer activity against human DU-145 cells assessed as cell growth inhibition incubated for 24 hrs by MTS assay; type: functional, cell-based; conditions: DU-145, 24 h
LNCaP = test: Anticancer activity against human LNCaP cells assessed as cell growth inhibition incubated for 24 hrs by MTS assay; type: functional, cell-based
[9] = target: Hepatocyte growth factor receptor (Homo sapiens, UniProt P08581); test: Inhibition of c-Met (unknown origin) incubated for 1 hrs in presence of ATP by ELISA assay
[10] = target: T1, Vascular endothelial growth factor receptor 2; test: Inhibition of human VEGFR2 (unknown origin) incubated for 1 hrs in presence of ATP by ELISA assay
A549 [11] = test: Anticancer activity against human A549 cells assessed as cell growth inhibition incubated for 24 hrs by MTT assay; type: functional, cell-based; conditions: A549, 24 h
HCT-116 [12] = test: Anticancer activity against human HCT-116 cells assessed as cell growth inhibition incubated for 24 hrs by MTT assay; type: functional, cell-based; conditions: HCT-116, 24 h
PC-3 [13] = test: Anticancer activity against human PC-3 cells assessed as cell growth inhibition incubated for 24 hrs by MTT assay; type: functional, cell-based; conditions: PC-3, 24 h
MCF7 [14] = test: Anticancer activity against human MCF7 cells assessed as cell growth inhibition incubated for 24 hrs by MTT assay; type: functional, cell-based; conditions: MCF7, 24 h
MDA-MB-231 = test: Antiproliferative activity against human MDA-MB-231 cells assessed as cell growth inhibition by MTT assay; type: functional, cell-based
A549 [15] = test: Antiproliferative activity against human A549 cells assessed as cell growth inhibition by MTT assay; type: functional, cell-based
K562 = test: Antiproliferative activity against human K562 cells assessed as cell growth inhibition by MTT assay; type: functional, cell-based
BT-20 [16] = test: Anticancer activity against human BT-20 cells assessed as cell growth inhibition incubated for 48 hrs by MTT assay; type: functional, cell-based; conditions: BT-20, 48 h
DU-145 [17] = test: Anticancer activity against human DU-145 cells assessed as cell growth inhibition incubated for 48 hrs by MTT assay; type: functional, cell-based; conditions: DU-145, 48 h
A549 [18] = test: Anticancer activity against human A549 cells assessed as cell growth inhibition incubated for 48 hrs by MTT assay; type: functional, cell-based; conditions: A549, 48 h
[19] = Anticancer activity against human SK-MEL-128 cells assessed as cell growth inhibition incubated for 48 hrs by MTT assay; type: functional, cell-based; conditions: SK-MEL-128, 48 h
BT-20 [20] = test: Potency index, ratio of test compound IC50 to cisplatin IC50 for antiproliferative against human BT-20 cells; type: functional
HeLa = test: Antiproliferative activity against human HeLa cells assessed as cell growth inhibition by MTT assay; type: functional, cell-based
Rattus norvegicus [21] = test: Antiinflammatory activity in rat assessed as reduction in edema at 5 to 20 mg/kg, po measured after 5 hrs relative to control; type: functional; parameters: scale not given: the % may be the effect or the level left; conditions: dose 5-20 mg/kg
Cytomegalovirus [22] = test: Antiviral activity against Cytomegalovirus infected in HFF cells […]; type: functional, organism-based; conditions: Human betaherpesvirus 5, HFF
Cytomegalovirus [23] = test: Potency index, ratio of test compound IC50 to ganciclovir IC50 for antiviral activity against Cytomegalovirus; type: functional
A549 [24] = test: Anticancer activity against human A549 cells assessed as cell growth inhibition incubated for 48 hrs by CCK8 assay; type: functional, cell-based; conditions: A549, 48 h
[25] = test system: Japanese encephalitis virus; test: Antiviral activity against Japanese encephalitis virus; type: functional; conditions: read-out: ED50 (the source's name)
Leishmania infantum = test: Antileishmanial activity against Leishmania infantum measured after 20 mins; type: functional
Cytomegalovirus [26] = test: Potency index, ratio of ganciclovir IC50 to test compound IC50 for antiviral activity against Cytomegalovirus; type: functional
[27] = Inhibition of Mycobacterium tuberculosis Shikimate dehydrogenase […]; type: functional
[28] = Oral bioavailability in mouse relative to control; type: ADME, organism-based; conditions: in vivo
Human alphaherpesvirus 1 [29] = test: Antiviral activity against Human alphaherpesvirus 1 assessed as plaque reduction at […] relative to control; type: functional; parameters: dose or concentration left out as unconfirmed
Mus musculus [30] = test: Anticonvulsant activity in ip dosed mouse assessed as neurotoxicity measured after 15 mins; type: functional; conditions: 0.25 h
[31] = Inhibition of Plasmodium falciparum dihydrofolate reductase
HOP-92 = test: Anticancer activity against human HOP-92 cells assessed as cell growth inhibition incubated for 48 hrs by SRB assay; type: functional
NCI-H460 = test: Anticancer activity against human NCI-H460 cells assessed as cell growth inhibition incubated for 48 hrs by SRB assay; type: functional
HCT-116 [32] = test: Anticancer activity against human HCT-116 cells assessed as cell growth inhibition incubated for 48 hrs by SRB assay; type: functional
U-251 = test: Anticancer activity against human U-251 cells assessed as cell growth inhibition incubated for 48 hrs by SRB assay; type: functional
LOX IMVI = test: Anticancer activity against human LOX IMVI cells assessed as cell growth inhibition incubated for 48 hrs by SRB assay; type: functional
A498 = test: Anticancer activity against human A498 cells assessed as cell growth inhibition incubated for 48 hrs by SRB assay; type: functional
Rattus norvegicus [33] = test: Antiinflammatory activity in rat assessed as reduction in xylene induced edema relative to control; type: functional; parameters: scale not given: the % may be the effect or the level left
[34] = Inhibition of Plasmodium falciparum dihydrofolate reductase measured after 48 hrs
[35] = target: Bifunctional dihydrofolate reductase-thymidylate synthase (Plasmodium vivax, UniProt O02604); test: Inhibition of Plasmodium vivax dihydrofolate reductase measured after 48 hrs
SMMC-7721 = test: Anticancer activity against human SMMC-7721 cells assessed as cell growth inhibition incubated for 48 hrs by CCK8 assay; type: functional, cell-based; conditions: SMMC-7721, 48 h
PC-3 [36] = test: Anticancer activity against human PC-3 cells assessed as cell growth inhibition; type: functional, cell-based
MCF7 [37] = test: Antiproliferative activity against human MCF7 cells assessed as cell viability incubated for 48 hrs by MTT assay; type: functional, cell-based; conditions: MCF7, 48 h
HCT-116 [38] = test: Antiproliferative activity against human HCT-116 cells assessed as cell viability incubated for 48 hrs by MTT assay; conditions: HCT-116, 48 h
HepG2 = test: Antiproliferative activity against human HepG2 cells assessed as cell viability incubated for 72 hrs by MTT assay; type: functional, cell-based; conditions: HepG2, 72 h
Trypanosoma brucei = test: […] activity against Trypanosoma brucei assessed as […] growth inhibition; type: functional, organism-based

T1 sequence (P35968 whole entry): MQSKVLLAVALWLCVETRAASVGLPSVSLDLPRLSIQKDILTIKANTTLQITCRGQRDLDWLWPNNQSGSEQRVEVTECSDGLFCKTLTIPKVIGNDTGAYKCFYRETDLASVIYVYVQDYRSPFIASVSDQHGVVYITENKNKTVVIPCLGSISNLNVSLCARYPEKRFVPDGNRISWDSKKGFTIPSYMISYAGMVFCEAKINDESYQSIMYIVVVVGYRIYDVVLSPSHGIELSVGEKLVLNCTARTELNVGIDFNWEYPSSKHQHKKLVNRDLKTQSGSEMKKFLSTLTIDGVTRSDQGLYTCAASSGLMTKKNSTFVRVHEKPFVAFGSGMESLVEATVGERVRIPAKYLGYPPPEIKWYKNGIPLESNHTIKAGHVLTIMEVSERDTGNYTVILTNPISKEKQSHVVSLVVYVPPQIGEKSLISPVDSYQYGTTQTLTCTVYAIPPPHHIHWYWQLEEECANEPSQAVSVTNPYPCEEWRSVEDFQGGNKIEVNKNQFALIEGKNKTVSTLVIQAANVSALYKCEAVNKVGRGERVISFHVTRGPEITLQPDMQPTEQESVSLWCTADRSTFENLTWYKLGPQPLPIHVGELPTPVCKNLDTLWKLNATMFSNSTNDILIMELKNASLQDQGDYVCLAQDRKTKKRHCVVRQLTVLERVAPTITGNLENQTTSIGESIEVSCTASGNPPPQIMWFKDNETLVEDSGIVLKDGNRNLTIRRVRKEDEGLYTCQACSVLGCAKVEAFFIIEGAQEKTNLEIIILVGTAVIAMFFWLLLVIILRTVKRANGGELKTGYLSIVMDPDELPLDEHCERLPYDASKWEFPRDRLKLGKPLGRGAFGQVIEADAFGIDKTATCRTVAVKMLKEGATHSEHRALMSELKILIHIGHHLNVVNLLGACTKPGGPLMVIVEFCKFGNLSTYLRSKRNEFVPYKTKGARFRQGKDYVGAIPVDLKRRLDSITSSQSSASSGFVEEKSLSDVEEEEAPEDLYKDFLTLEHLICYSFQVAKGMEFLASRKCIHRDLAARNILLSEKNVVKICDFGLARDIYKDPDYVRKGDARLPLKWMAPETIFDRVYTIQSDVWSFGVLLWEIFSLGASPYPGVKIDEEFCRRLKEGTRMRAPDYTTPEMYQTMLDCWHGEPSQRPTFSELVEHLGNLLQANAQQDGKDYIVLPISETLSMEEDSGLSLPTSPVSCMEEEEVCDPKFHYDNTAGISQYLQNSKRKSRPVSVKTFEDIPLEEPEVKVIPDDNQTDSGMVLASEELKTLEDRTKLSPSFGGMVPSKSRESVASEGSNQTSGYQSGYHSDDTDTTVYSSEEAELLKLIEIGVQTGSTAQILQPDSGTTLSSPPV
Chain of Bifunctional dihydrofolate reductase-thymidylate synthase (O02604 whole entry): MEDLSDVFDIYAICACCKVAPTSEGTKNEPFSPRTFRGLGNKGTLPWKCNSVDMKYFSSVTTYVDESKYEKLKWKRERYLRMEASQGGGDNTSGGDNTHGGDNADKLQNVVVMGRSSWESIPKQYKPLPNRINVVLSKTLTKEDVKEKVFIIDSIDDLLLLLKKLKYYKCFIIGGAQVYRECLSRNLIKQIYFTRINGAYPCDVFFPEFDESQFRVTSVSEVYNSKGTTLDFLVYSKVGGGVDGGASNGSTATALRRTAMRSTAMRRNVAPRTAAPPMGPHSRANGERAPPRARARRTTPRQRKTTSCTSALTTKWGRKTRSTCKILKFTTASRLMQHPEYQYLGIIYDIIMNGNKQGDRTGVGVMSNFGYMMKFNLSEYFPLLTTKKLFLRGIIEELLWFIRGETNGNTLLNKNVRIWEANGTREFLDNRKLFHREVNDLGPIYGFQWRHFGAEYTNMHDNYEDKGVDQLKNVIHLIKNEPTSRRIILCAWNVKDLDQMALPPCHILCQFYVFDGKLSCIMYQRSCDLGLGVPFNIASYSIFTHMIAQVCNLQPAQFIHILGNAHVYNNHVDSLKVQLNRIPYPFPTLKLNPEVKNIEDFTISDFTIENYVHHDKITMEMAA
Chain of Hepatocyte growth factor receptor (P08581 whole entry): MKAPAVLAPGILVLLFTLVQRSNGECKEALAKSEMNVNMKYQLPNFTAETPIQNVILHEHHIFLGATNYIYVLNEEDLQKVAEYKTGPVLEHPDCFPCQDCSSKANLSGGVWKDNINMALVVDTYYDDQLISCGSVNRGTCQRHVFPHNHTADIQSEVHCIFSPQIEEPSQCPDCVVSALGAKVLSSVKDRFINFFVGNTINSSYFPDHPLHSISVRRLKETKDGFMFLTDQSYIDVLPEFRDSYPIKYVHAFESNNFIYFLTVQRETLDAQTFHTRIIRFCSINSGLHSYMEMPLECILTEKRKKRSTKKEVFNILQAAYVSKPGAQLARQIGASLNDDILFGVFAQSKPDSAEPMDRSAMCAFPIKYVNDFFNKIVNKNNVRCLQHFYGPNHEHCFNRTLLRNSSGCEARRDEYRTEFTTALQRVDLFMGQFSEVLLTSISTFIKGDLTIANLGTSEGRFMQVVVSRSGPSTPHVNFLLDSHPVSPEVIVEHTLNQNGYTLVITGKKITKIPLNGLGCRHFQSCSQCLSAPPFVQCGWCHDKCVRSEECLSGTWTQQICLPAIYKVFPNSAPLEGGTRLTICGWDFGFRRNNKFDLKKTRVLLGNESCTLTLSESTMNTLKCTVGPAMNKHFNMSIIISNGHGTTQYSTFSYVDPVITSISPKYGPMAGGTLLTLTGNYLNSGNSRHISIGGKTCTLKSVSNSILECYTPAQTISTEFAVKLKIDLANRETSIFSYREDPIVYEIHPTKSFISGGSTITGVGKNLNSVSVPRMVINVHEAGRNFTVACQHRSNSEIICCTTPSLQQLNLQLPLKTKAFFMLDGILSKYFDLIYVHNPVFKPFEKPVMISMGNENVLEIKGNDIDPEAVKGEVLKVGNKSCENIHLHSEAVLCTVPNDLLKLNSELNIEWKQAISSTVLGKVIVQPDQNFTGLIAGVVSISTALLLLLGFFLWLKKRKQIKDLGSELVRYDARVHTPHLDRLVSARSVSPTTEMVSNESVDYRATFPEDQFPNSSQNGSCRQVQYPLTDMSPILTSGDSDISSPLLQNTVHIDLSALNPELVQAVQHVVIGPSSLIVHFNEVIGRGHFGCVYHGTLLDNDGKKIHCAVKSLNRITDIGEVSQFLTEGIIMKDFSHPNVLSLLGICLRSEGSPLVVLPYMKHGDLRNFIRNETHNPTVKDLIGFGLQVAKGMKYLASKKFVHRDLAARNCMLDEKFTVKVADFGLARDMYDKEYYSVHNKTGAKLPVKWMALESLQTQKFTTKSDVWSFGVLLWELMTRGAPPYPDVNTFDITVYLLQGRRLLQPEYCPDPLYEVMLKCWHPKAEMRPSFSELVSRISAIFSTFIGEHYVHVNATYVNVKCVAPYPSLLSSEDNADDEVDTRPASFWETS

CCOC(=O)CSc1nc2n(n1)C(=O)C(CCCl)C(C)N2 (stereo not drawn)
Activity (Human alphaherpesvirus 1 [1]): 50%

Fc1ccc(-c2csc3nncn23)cc1
selectivity ratio [2]: 1.7 | ED50 (Mus musculus [3]): 49.1 mg/kg | ED50 (Mus musculus [4]): 49.1 mg/kg

O=c1nc2c3c(ncn2[nH]1)Oc1c(c(=O)oc2ccccc12)C3c1ccc(F)cc1 (stereo not drawn)
IC50 (MCF7 [5]): 7.9 µg/mL (≈ 19.6 µM) | inhibition [6]: 94%

COc1ccc2cc(C(C)c3nnc(SCC(=O)N/N=C/c4cc([N+](=O)[O-])ccc4-c4ccco4)n3-c3ccc(F)cc3)ccc2c1 (stereo not drawn)
IC50 (PC-3 [7]): 26 µM | IC50 (DU-145 [8]): 34.5 µM | IC50 (LNCaP): 48.8 µM

Cc1c(C(=O)Nc2ccc(Oc3ccnc(-c4nncn4CN4CCN(C)CC4)c3)c(F)c2)c(=O)n(-c2ccccc2)n1C
IC50 [9]: 0.11 µM | IC50 [10]: 0.19 µM

CC1CNCC(C)N1c1ccc(Nc2nccc(N3CCn4c(nnc4-c4ccc(F)c(Cl)c4)C3)n2)cc1 (stereo not drawn)
IC50 (A549 [11]): 2.14 µM | IC50 (HCT-116 [12]): 3.59 µM | IC50 (PC-3 [13]): 5.52 µM | IC50 (MCF7 [14]): 3.69 µM

Cc1nn(-c2ccc(Br)cc2)c(=O)n1-n1c(-c2cc3ccccc3oc2=O)cs/c1=N\c1ccc(Cl)cc1
IC50 (MDA-MB-231): 0.16 µg/mL (≈ 0.264 µM) | IC50 (A549 [15]): 0.16 µg/mL (≈ 0.264 µM) | IC50 (K562): 0.16 µg/mL (≈ 0.264 µM)

CCN(CC)c1ccc2cc(C(=O)NNC(=O)Cn3nc(Cc4cccc(Br)c4)n(N)c3=O)c(=O)oc2c1
IC50 (BT-20 [16]): 3.1 µg/mL (≈ 5.3 µM) | IC50 (DU-145 [17]): 3.1 µg/mL (≈ 5.3 µM) | IC50 (A549 [18]): 3.1 µg/mL (≈ 5.3 µM) | IC50 [19]: 3.1 µg/mL (≈ 5.3 µM) | Ratio IC50 (BT-20 [20]): 2.7 | IC50 (HeLa): 0.16 µg/mL (≈ 0.274 µM)

O=C(CSc1nncn1CC(=O)N/N=C/c1ccc(O)cc1)N/N=C/c1ccc(O)cc1
Activity (Rattus norvegicus [21]): 64.44%

Cc1cc2nc(Cc3nncn3-c3ccccn3)c(=O)[nH]c2cc1C
IC50 (Cytomegalovirus [22]): < 0.05 µM | Ratio IC50 (Cytomegalovirus [23]): >3000

CCCCSSc1nnc(-c2ccccc2)n1N
IC50 (A549 [24]): 2.79 µM

CN1C(=O)c2ccccc2N(c2cccc(-c3nnc4n3NC(c3ccccc3)=C(c3ccccc3)S4)c2)C1c1ccccc1 (stereo not drawn)
EC50 [25]: 7.8 µg/mL (≈ 12.9 µM)

Nn1c(S)nnc1Cn1nc(Cc2cccs2)n(N)c1=O
MIC (Leishmania infantum): 625 µg/mL (≈ 1930 µM)

Nc1nc2c(ncn2COC(CO)CO)c(=O)[nH]1 [GANCICLOVIR]
IC50 (Cytomegalovirus [22]): 0.59 µM | Ratio IC50 (Cytomegalovirus [26]): >256

COc1ccc(OCc2nn3c(-c4ccc(Br)cc4)nnc3s2)cc1
log(activity) [27]: 1.7 | bioavailability [28]: 14%

Cc1ccc2nc(Cl)c3nnc(NC(=S)Nc4ccccc4)n3c2c1
Activity (Human alphaherpesvirus 1 [29]): 25%

Fc1ccc(-n2c(-c3cccc(Cl)c3)n[nH]c2=S)cc1
selectivity ratio [2]: 3.9 | TD50 (Mus musculus [30]): 137 mg/kg

CC1=C(C(=O)Nc2ccc(Br)cn2)C(c2cn(-c3ccccc3)nc2-c2ccc(Cl)cc2)n2ncnc2N1 (stereo not drawn)
IC50 [31]: 0.023 µg/mL (≈ 0.0391 µM)

Clc1ccccc1-c1nnc2c(Cc3ccccc3)nc3ccccc3n12
GI50 (HOP-92): 3.91 µM | GI50 (NCI-H460): 3.45 µM | GI50 (HCT-116 [32]): 3.49 µM | GI50 (U-251): 1.96 µM | GI50 (LOX IMVI): 5.18 µM | GI50 (A498): 1.8 µM

O=c1c2sccc2n2cnnc2n1-c1ccc(Cl)cc1
Activity (Rattus norvegicus [33]): 50.48%

CC1=NC2NC(CC(F)(F)F)=NN2C(Nc2ccc(C(F)(F)F)nc2)=C1 (stereo not drawn)
IC50 [34]: 0.053 µM | IC50 [35]: 0.094 µM

CC(C)SSc1nnc(-c2ccccc2)n1N
IC50 (SMMC-7721): 2.97 µM

O=C(CSc1nnc2n(Cc3ccccc3)c(=O)c3c4c(sc3n12)CCCC4)N1CCN(c2ccccc2)CC1
IC50 (PC-3 [36]): 5.48 µM

O=C(O)c1ccc(-n2nc(Oc3ccccc3)nc2NC(=S)NC(=O)c2ccccc2)cc1
IC50 (MCF7 [37]): 23.9 µM

CSc1nc(NC(=S)NCc2ccccc2)n(-c2ccc(C(=O)O)cc2)n1
IC50 (HCT-116 [38]): 15.6 µM

CCc1nnc2c(Nc3ccc(C(=O)/C=C/c4cc(OC)c(OC)c(OC)c4)cc3)nc3ccccc3n12
IC50 (HepG2): 8.58 µM

Cc1nc(C)c(C(=O)Nc2ccc(F)c(-c3nc4ncc(C(C)(C)C)cn4n3)c2)o1
EC50 (Trypanosoma brucei): 0.03 µM
